Tests used:
RXFP1 [1] = target: T1, RXFP1 (Homo sapiens, UniProt Q9HBX9); assay: cGMP accumulation in human primary vascular cells and cardiac fibroblasts; format: cell-based; conditions: for cGMP accumulation, maximum: DEA 10 μM, 5 min
T1 sequence (Q9HBX9 1-757): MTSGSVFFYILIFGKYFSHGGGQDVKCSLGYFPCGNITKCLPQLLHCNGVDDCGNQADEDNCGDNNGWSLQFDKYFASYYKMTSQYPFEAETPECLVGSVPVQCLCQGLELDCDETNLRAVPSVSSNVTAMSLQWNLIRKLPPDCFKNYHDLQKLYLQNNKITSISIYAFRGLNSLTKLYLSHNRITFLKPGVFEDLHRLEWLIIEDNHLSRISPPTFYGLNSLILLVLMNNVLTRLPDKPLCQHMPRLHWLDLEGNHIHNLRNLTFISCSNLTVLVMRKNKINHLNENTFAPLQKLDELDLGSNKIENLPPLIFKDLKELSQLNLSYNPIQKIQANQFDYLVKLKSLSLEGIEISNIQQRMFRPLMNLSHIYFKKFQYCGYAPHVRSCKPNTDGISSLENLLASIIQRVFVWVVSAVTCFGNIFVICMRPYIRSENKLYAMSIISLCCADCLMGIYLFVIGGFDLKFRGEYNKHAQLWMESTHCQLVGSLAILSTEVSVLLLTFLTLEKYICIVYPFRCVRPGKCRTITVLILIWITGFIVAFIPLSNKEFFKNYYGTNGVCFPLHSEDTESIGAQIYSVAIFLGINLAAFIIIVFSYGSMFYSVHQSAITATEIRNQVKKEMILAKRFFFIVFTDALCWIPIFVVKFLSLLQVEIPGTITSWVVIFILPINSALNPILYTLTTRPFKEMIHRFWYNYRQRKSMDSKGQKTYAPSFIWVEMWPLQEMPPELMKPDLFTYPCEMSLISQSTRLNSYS
Method: (§1) cAMP and cGMP accumulation was determined as previously described, [16]. Briefly, HEK293 cells were plated in 96-well plates (5 × 10^4 cells/well) and human primary cells were plated into 24-well plates (1 × 10^5 cells/well) and grown overnight to achieve a confluent monolayer. Prior to stimulation, HEK cells were serum-starved in DMEM containing 0.5% FBS v/v and primary cells were serum-starved in M199 medium for 4–6 hours. Where appropriate, cells were pre-incubated with mSIRK (5 μM, 30 min), mSIRK control peptide L9A (5 μM, 30 min), gallein (100 μM, 30 min), Wortmannin (100 nM, 30 min), NF023 (10 μM, 30 min) and NF449 (10 μM, 30 min). Levels of cAMP and cGMP were detected according to the manufacturer’s instructions (Perkin-Elmer, Australia).

RXFP1 [2] = assay: as above; format: cell-based; conditions: HUAEC, cells that do not express cell surface RXFP1; 30 min
Method: as §1

[3] = test system: ML290-mediated cAMP accumulation; assay: Effect of signalling pathway inhibitors on ML290-mediated cAMP accumulation in human primary vascular cells; format: cell-based
Method: as §1, with “Where appropriate, cells were pre-incubated with mSIRK (5 μM, 30 min), mSIRK control peptide L9A (5 μM, 30 min), gallein (100 μM, 30 min), Wortmannin (100 nM, 30 min), NF023 (10 μM, 30 min) and NF449 (10 μM, 30 min).” left out

p-Smad2 = assay: Smad2 phosphorylation assay in human cardiac fibroblasts; format: cell-based; conditions: 72 hours
Method: Cells were serum-starved in M199 medium for 24 hours prior sample collection. Cells were used between passages 1–4, while all experiments were performed four separate times in duplicate. Levels of p-Smad2 and p-Smad3 were detected using Sure-fire kits according to the manufacturer’s instructions (Perkin-Elmer, Australia).

AVPR1B = test system: AVPR1B; set-up: method as in PMID 23764525; conditions: cited from earlier work
[4] = set-up: method as in PMID 23764525; conditions: cited from earlier work
LDLa mutant receptors = conditions: cited from earlier work
RXFP1 [5] = target: T1, RXFP1; assay: p38MAPK phosphorylation (Surefire) in HEK-RXFP1 cells; format: cell-based; set-up: expressed in transfected cells; host or cells: HEK293T / HEK293 cells stably expressing RXFP1 (HEK-RXFP1)
Method: (§2) p-ERK1/2, p-p38MAPK and p-JNK1/2 was measured using the Surefire ERK, p38 and JNK kits (TGR BioSciences, Australia) as described previously, [16]. Briefly, HEK-RXFP1 cells were plated into 96-well plates (5 × 10^4 cells/well) and primary cells grown in 24-well plates (1 × 10^5 cells/well) overnight to achieve a confluent monolayer. Prior to stimulation, HEK293 cells were serum-starved with DMEM containing 0.5% (v/v) FBS and primary cells in M199 medium for 4–6 hours. […] Levels of p-ERK1/2, p-p38MAPK and p-JNK1/2/3 were detected as per manufacturer’s instructions (Perkin-Elmer, Australia).

RXFP1 [6] = target: T1, RXFP1; assay: JNK1/2 phosphorylation (Surefire) in HEK-RXFP1 cells; format: cell-based; set-up: expressed in transfected cells; host or cells: HEK293T / HEK293 cells stably expressing RXFP1 (HEK-RXFP1); conditions: up to 45 min, H2 relaxin 100 nM, ML290 100 nM or 10 μM
Method: as §2

With `CC(C)Oc1ccccc1C(=O)Nc1ccccc1C(=O)Nc1cccc(S(=O)(=O)C(F)(F)F)c1` [ML290, 2-Isopropoxy-N-(2-(3-(trifluoromethylsulfonyl)phenylcarbamoyl)phenyl) benzamide] the “cGMP accumulation, maximum” value (RXFP1 [1]; HCAEC, 30 min) was 40.6 ± 5.6 % of the DEA response, the “cGMP accumulation, maximum” value (RXFP1 [1]; HUASMC, 30 min) was 21.0 ± 4.1 % of the DEA response and the Emax (RXFP1 [1]; HUVEC, read-out: cGMP accumulation efficacy (Emax), HUVEC, 30 min) was 23.5%. For the same compound, the “cGMP accumulation, maximum” value (RXFP1 [1]; HUVEC, 30 min) was 23.5 ± 4.4 % of the DEA response, the “cGMP accumulation, maximum” value (RXFP1 [1]; HUVSMC, 30 min) was 11.0 ± 3.4 % of the DEA response and the Emax (RXFP1 [1]; read-out: cGMP accumulation efficacy (Emax), HCAEC, 30 min) was 40.6%. The Emax (RXFP1 [1]; read-out: cGMP accumulation efficacy (Emax), HCF) was 45.3%, the Emax (RXFP1 [1]; read-out: cGMP accumulation efficacy (Emax), HUASMC, 30 min) was 21% and the Emax (RXFP1 [1]; read-out: cGMP accumulation efficacy (Emax), HUVSMC, 30 min) was 11%. The cGMP accumulation (RXFP1 [2]) was “no effect”, the “ML290-mediated cAMP accumulation, ML290 alone” value ([3]; HCAECs, ML290 10 μM, 30 min) was 22.5 ± 5.5 % response to 50 μM forskolin and the “ML290-mediated cAMP accumulation, ML290 alone” value ([3]; HUASMCs, control of NF449 and mSIRK experiments) was 18.8 ± 4.3 % response to 50 μM forskolin. The “ML290-mediated cAMP accumulation, ML290 alone” value ([3]; HUASMCs, control of gallein and Wortmannin experiments) was 16.7 ± 3.4 % response to 50 μM forskolin, the “ML290-mediated cAMP accumulation, ML290 alone” value ([3]; HUVECs, ML290 10 μM, 30 min) was 16.4 ± 2.5 % response to 50 μM forskolin and the “ML290-mediated cAMP accumulation, ML290 alone” value ([3]; HUVSMCs, control of NF449 and mSIRK experiments) was 18.8 ± 8.0 % response to 50 μM forskolin. The “ML290-mediated cAMP accumulation, ML290 alone” value ([3]; HUVSMCs, control of gallein and Wortmannin experiments) was 12.6 ± 2.4 % response to 50 μM forskolin, the “effect on p-Smad2 levels” value (p-Smad2; HCFs not treated with TGF-β1, H2 relaxin 0.1 μM, ML290 1 μM) was “neither H2 relaxin (0.1 μM) nor ML290 (1 μM) significantly affected” and the “p-Smad2 in TGF-β1-stimulated cells” value (p-Smad2; HCFs, TGF-β1 2 ng/ml + H2 relaxin 0.1 μM or ML290 1 μM) was 1.58 ± 0.34 fold/basal. The “action at AVPR1B” value (AVPR1B) was “little or no action”, the cytotoxicity [4] was “little cytotoxicity” and the “cAMP production with LDLa mutant receptors” value (LDLa mutant receptors) was “still activates cAMP production”. For the same compound, the Emax (RXFP1 [5]; 15 min, read-out: p-p38MAPK efficacy (Emax) (converted)) was 16.9%, the “p38MAPK phosphorylation, time course” value (RXFP1 [5]; up to 45 min, H2 relaxin 100 nM, ML290 100 nM or 10 μM) was “increased p38MAPK phosphorylation” and the “JNK1/2 phosphorylation, time course” value (RXFP1 [6]) was “no effect”.

Reference: paper PMC5462828 (Scientific Reports, 2017)
